Experimental data from PMC9234962, “Optimization of Peptide Linker-Based Fluorescent Ligands for the Histamine H1 Receptor” (Journal of Medicinal Chemistry, 2022).
Like-named read-outs stand apart in the source and are kept apart here. Square brackets hold non-standard residues; d marks the D form. Side chains are listed from the residue outwards. Peptide text beside a SMILES is read from it. * marks the point of attachment. X1 = O=C(COc1ccc(/C=C/C2=[N+]3C(=Cc4ccc(-c5cccs5)n4[B-]3(F)F)C=C2)cc1)*; Propanoyl(3-Pip(4-O-2-BnPh)) = O=C(CCN1CCC(Oc2ccccc2Cc2ccccc2)CC1)*; X3 = Cc1cc(C)n2c1C=C1C=CC(/C=C/c3ccc(OCC(=O)*)cc3)=[N+]1[B-]2(F)F; BODIPY(FL) = CC1=CC(C)=[N+]2C1=Cc1ccc(CCC(=O)*)n1[B-]2(F)F; X2 = O=C(CCC1=[N+]2C(=Cc3ccc(-c4cccs4)n3[B-]2(F)F)C=C1)*; Ahx = NCCCCCC(=O)O; βAla = NCCC(=O)O

Experiments:
Nluc-H1R = Nluc-H1R (Homo sapiens, UniProt P35367); test: NanoBRET saturation binding assay on Nluc-H1R expressing HEK293T cells; set-up: expressed in transfected cells; conditions: saturation binding curves, whole HEK293T cells; for pKD: non-specific with 10 μM mepyramine, mean ± SEM
Sequence of Nluc-H1R (P35367 whole entry): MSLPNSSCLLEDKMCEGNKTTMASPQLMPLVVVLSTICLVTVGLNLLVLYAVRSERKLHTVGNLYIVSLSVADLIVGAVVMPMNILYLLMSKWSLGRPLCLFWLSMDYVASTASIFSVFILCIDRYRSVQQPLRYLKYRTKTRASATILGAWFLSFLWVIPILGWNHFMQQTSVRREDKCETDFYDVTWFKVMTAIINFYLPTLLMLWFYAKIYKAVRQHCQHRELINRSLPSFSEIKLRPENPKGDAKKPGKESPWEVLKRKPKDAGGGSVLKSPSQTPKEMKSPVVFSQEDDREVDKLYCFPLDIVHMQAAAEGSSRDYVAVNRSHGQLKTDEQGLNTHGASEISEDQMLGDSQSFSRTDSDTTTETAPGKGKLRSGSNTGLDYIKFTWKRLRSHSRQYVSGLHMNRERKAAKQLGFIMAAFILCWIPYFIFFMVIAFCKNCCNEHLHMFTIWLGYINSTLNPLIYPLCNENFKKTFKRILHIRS
From the text: Total and non-specific saturation binding curves from NanoBRET saturation binding assay were fitted simultaneously using eq 1: [drawing 4] 1 where Bmax is the maximal specific binding, [B] is the concentration of fluorescent ligand in nM, KD is the equilibrium dissociation constant in nM, M is the slope of the non-specific component, and C is the intercept with the Y axis.

human H1R = biological target: T1, human H1R (Homo sapiens, UniProt P35367); test: Ca2+ mobilization assay on human H1R-expressing CHO cells; assay type: cell-based; conditions: Gaddum equation, shift in histamine EC25 with 1 μM antagonist
T1 construct: expressed in transfected cells; host or cells: CHO cells
T1 sequence (P35367 whole entry): as above
Procedure: CHO cells expressing H1R were grown to confluence in black-walled, clear-bottom 96-well plates. On the day of the experiment, media were replaced with 100 μL of HBSS containing […], 2.3 μM Fluo-4AM (Invitrogen), 0.023% Pluronic F-127, 0.5 mM Brilliant Black BN, and 1 μM required fluorescent ligand and the plates incubated for 1 h at 37 °C in the dark. The plates were then placed in the multi-well fluorometric imaging plate reader FlexStation3 (Molecular Devices, Sunnyvale, CA) and HBSS only or HBSS containing the required concentration of histamine was added after 15 s. Fluo-4 fluorescence was measured at 520 nm (excitation at 485 nm) every 1.52 s for 200 s. For each well, the peak maximum–minimum–maximum change in fluorescence value was taken and plotted against concentration of histamine to give a dose–response curve.
Estimated affinity values (pKB) were calculated from the shift in agonist concentration–response curves in the presence of the fluorescent antagonists using the Gaddum equation (7): [drawing 10] 7 where DR (dose ratio) is the ratio of the agonist concentration required to stimulate an identical response in the presence and absence of antagonist, [B]. DR was determined from the EC25 value as there was a decrease in observed maximal efficacy of histamine in the presence of all 10 fluorescent antagonists.

[1] = mean ± SEM, four experiments, read-out: pKB (converted)

Kd (Nluc-H1R) | pKD (Nluc-H1R) | Kb (human H1R; [1]) | Kb (human H1R; read-out: KB (converted)) | Compound
66 nM | 7.18 ± 0.11 | 110 nM |  | Cc1cc(C)n2c1C=C1C=CC(/C=C/c3ccc(OCC(=O)NCCCC[C@H](NC(=O)CCNC(=O)[C@H](CC(N)=O)NC(=O)[C@H](CO)NC(=O)[C@@H](NC(=O)CCN4CCC(Oc5ccccc5Cc5ccccc5)CC4)C(C)C)C(N)=O)cc3)=[N+]1[B-]2(F)F [Compound 38b, (S)-N^1-(3-(((S)-1-Amino-6-(2-(4-((E)-2-(5,5-difluoro-7,9-dimethyl-5H-5λ^4,6λ^4-dipyrrolo[1,2-c:2’,1’-f][1,3,2]diazaborinin-3-yl)vinyl)phenoxy)acetamido)-1-oxohexan-2-yl)amino)-3-oxopropyl)-2-((S)-2-((S)-2-(3-(4-(2-benzylphenoxy)piperidin-1-yl)propanamido)-3-methylbutanamido)-3-hydroxypropanamido)succinamide] ({Propanoyl(3-Pip(4-O-2-BnPh))}-VSN[βAla]K(X3)-NH2)
209 nM | 6.68 ± 0.10 |  | 302 nM | CC(C)[C@H](NC(=O)CCN1CCC(Oc2ccccc2Cc2ccccc2)CC1)C(=O)N[C@@H](CO)C(=O)N[C@@H](CC(N)=O)C(=O)NCCC(=O)N[C@@H](CCCCNC(=O)CCC1=[N+]2C(=Cc3ccc(-c4cccs4)n3[B-]2(F)F)C=C1)C(N)=O [Compound 38c, (S)-N^1-(3-(((S)-1-Amino-6-(3-(5,5-difluoro-7-(thiophen-2-yl)-5H-5λ^4,6λ^4-dipyrrolo[1,2-c:2’,1’-f][1,3,2]diazaborinin-3-yl)propanamido)-1-oxohexan-2-yl)amino)-3-oxopropyl)-2-((S)-2-((S)-2-(3-(4-(2-benzylphenoxy)piperidin-1-yl)propanamido)-3-methylbutanamido)-3-hydroxypropanamido)succinamide] ({Propanoyl(3-Pip(4-O-2-BnPh))}-VSN[βAla]K(X2)-NH2)
1290 nM | 5.89 ± 0.10 |  | 112 nM | Cc1cc(C)n2c1C=C1C=CC(CCC(=O)NCCCC[C@H](NC(=O)CCNC(=O)[C@H](CC(N)=O)NC(=O)[C@H](CO)NC(=O)[C@@H](NC(=O)CCN3CCC(Oc4ccccc4Cc4ccccc4)CC3)C(C)C)C(N)=O)=[N+]1[B-]2(F)F [Compound 38d, (S)-N^1-(3-(((S)-1-Amino-6-(3-(5,5-difluoro-7,9-dimethyl-5H-4λ^4,5λ^4-dipyrrolo[1,2-c:2’,1’-f][1,3,2]diazaborinin-3-yl)propanamido)-1-oxohexan-2-yl)amino)-3-oxopropyl)-2-((S)-2-((S)-2-(3-(4-(2-benzylphenoxy)piperidin-1-yl)propanamido)-3-methylbutanamido)-3-hydroxypropanamido)succinamide] ({Propanoyl(3-Pip(4-O-2-BnPh))}-VSN[βAla]K(BODIPY(FL))-NH2)
5250 nM | 5.28 ± 0.06 |  |  | Cc1cc(C)n2c1C=C1C=CC(CCC(=O)NCCCCCC(=O)NCCCC[C@H](NC(=O)CCNC(=O)[C@H](CC(N)=O)NC(=O)[C@H](CO)NC(=O)[C@@H](NC(=O)CCN3CCC(Oc4ccccc4Cc4ccccc4)CC3)C(C)C)C(N)=O)=[N+]1[B-]2(F)F [Compound 38e, (S)-N^1-(3-(((S)-1-Amino-6-(6-(3-(5,5-difluoro-7,9-dimethyl-5H-4λ^4,5λ^4-dipyrrolo[1,2-c:2’,1’-f][1,3,2]diazaborinin-3-yl)propanamido)hexanamido)-1-oxohexan-2-yl)amino)-3-oxopropyl)-2-((S)-2-((S)-2-(3-(4-(2-benzylphenoxy)piperidin-1-yl)propanamido)-3-methylbutanamido)-3-hydroxypropanamido)succinamide] ({Propanoyl(3-Pip(4-O-2-BnPh))}-VSN[βAla]K([Ahx-BODIPY(FL)])-NH2)
2190 nM | 5.66 ± 0.02 |  | 4680 nM | CC(C)[C@H](NC(=O)CCN1CCC(Oc2ccccc2Cc2ccccc2)CC1)C(=O)N[C@@H](CO)C(=O)N[C@@H](CC(N)=O)C(=O)NCCC(=O)N[C@@H](CCCCNC(=O)CCCCC[N+]1=C(/C=C/C=C/C=C2/N(C)c3ccc(S(=O)(=O)[O-])cc3C2(C)C)C(C)(C)c2cc(S(=O)(=O)O)ccc21)C(N)=O [Compound 38f, 1-((5S,8S,11S,18S)-11-(2-Amino-2-oxoethyl)-1-(4-(2-benzylphenoxy)piperidin-1-yl)-18-carbamoyl-8-(hydroxymethyl)-5-isopropyl-3,6,9,12,16,24-hexaoxo-4,7,10,13,17,23-hexaazanonacosan-29-yl)-3,3-dimethyl-2-((1E,3E)-5-((E)-1,3,3-trimethyl-5-sulfonatoindolin-2-ylidene)penta-1,3-dien-1-yl)-3H-indol-1-ium-5-sulfonate]
44 nM | 7.36 ± 0.03 |  | 102 nM | Cc1cc(C)n2c1C=C1C=CC(/C=C/c3ccc(OCC(=O)NCCCC[C@H](NC(=O)CCNC(=O)[C@H](C)NC(=O)[C@H](C)NC(=O)[C@H](Cc4ccccc4)NC(=O)CCN4CCC(Oc5ccccc5Cc5ccccc5)CC4)C(N)=O)cc3)=[N+]1[B-]2(F)F [Compound 39b, (S)-2-((6S,9S,12S)-12-Benzyl-16-(4-(2-benzylphenoxy)piperidin-1-yl)-6,9-dimethyl-5,8,11,14-tetraoxo-4,7,10,13-tetraazahexadecanamido)-6-(2-(4-((E)-2-(5,5-difluoro-7,9-dimethyl-5H-5λ^4,6λ^4-dipyrrolo[1,2-c:2’,1’-f][1,3,2]diazaborinin-3-yl)vinyl)phenoxy)acetamido)hexanamide] ({Propanoyl(3-Pip(4-O-2-BnPh))}-FAA[βAla]K(X3)-NH2)
724 nM | 6.14 ± 0.06 |  | 363 nM | C[C@H](NC(=O)[C@H](C)NC(=O)[C@H](Cc1ccccc1)NC(=O)CCN1CCC(Oc2ccccc2Cc2ccccc2)CC1)C(=O)NCCC(=O)N[C@@H](CCCCNC(=O)CCC1=[N+]2C(=Cc3ccc(-c4cccs4)n3[B-]2(F)F)C=C1)C(N)=O [Compound 39c, (S)-2-((6S,9S,12S)-12-Benzyl-16-(4-(2-benzylphenoxy)piperidin-1-yl)-6,9-dimethyl-5,8,11,14-tetraoxo-4,7,10,13-tetraazahexadecanamido)-6-(3-(5,5-difluoro-7-(thiophen-2-yl)-5H-5λ^4,6λ^4-dipyrrolo[1,2-c:2’,1’-f][1,3,2]diazaborinin-3-yl)propanamido)hexanamide] ({Propanoyl(3-Pip(4-O-2-BnPh))}-FAA[βAla]K(X2)-NH2)
1440 nM | 5.84 ± 0.13 | 34.7 nM |  | Cc1cc(C)n2c1C=C1C=CC(CCC(=O)NCCCC[C@H](NC(=O)CCNC(=O)[C@H](C)NC(=O)[C@H](C)NC(=O)[C@H](Cc3ccccc3)NC(=O)CCN3CCC(Oc4ccccc4Cc4ccccc4)CC3)C(N)=O)=[N+]1[B-]2(F)F [Compound 39d, (S)-2-((6S,9S,12S)-12-Benzyl-16-(4-(2-benzylphenoxy)piperidin-1-yl)-6,9-dimethyl-5,8,11,14-tetraoxo-4,7,10,13-tetraazahexadecanamido)-6-(3-(5,5-difluoro-7,9-dimethyl-5H-4λ^4,5λ^4-dipyrrolo[1,2-c:2’,1’-f][1,3,2]diazaborinin-3-yl)propan-amido)hexanamide] ({Propanoyl(3-Pip(4-O-2-BnPh))}-FAA[βAla]K(BODIPY(FL))-NH2)
2690 nM | 5.57 ± 0.05 |  |  | Cc1cc(C)n2c1C=C1C=CC(CCC(=O)NCCCCCC(=O)NCCCC[C@H](NC(=O)CCNC(=O)[C@H](C)NC(=O)[C@H](C)NC(=O)[C@H](Cc3ccccc3)NC(=O)CCN3CCC(Oc4ccccc4Cc4ccccc4)CC3)C(N)=O)=[N+]1[B-]2(F)F [Compound 39e, N-((5S,8S,11S,18S)-5-Benzyl-1-(4-(2-benzylphenoxy)piperidin-1-yl)-18-carbamoyl-8,11-dimethyl-3,6,9,12,16-pentaoxo-4,7,10,13,17-pentaazadocosan-22-yl)-6-(3-(5,5-difluoro-7,9-dimethyl-5H-4λ^4,5λ^4-dipyrrolo[1,2-c:2’,1’-f][1,3,2]diazaborinin-3-yl)propanamido)hexanamide] ({Propanoyl(3-Pip(4-O-2-BnPh))}-FAA[βAla]K([Ahx-BODIPY(FL)])-NH2)

Compound | Kd (Nluc-H1R) | pKD (Nluc-H1R) | Kb (human H1R; [1]) | Kb (human H1R; read-out: KB (converted))
C[C@H](NC(=O)[C@H](C)NC(=O)[C@H](Cc1ccccc1)NC(=O)CCN1CCC(Oc2ccccc2Cc2ccccc2)CC1)C(=O)NCCC(=O)N[C@@H](CCCCNC(=O)CCCCCNC(=O)COc1ccc(/C=C/C2=[N+]3C(=Cc4ccc(-c5cccs5)n4[B-]3(F)F)C=C2)cc1)C(N)=O [Compound 39a, N-((5S,8S,11S,18S)-5-Benzyl-1-(4-(2-benzylphenoxy)piperidin-1-yl)-18-carbamoyl-8,11-dimethyl-3,6,9,12,16-pentaoxo-4,7,10,13,17-pentaazadocosan-22-yl)-6-(2-(4-((E)-2-(5,5-difluoro-7-(thiophen-2-yl)-5H-4λ^4,5λ^4-dipyrrolo[1,2-c:2’,1’-f][1,3,2]diazaborinin-3-yl)vinyl)phenoxy)acetamido)hexanamide] ({Propanoyl(3-Pip(4-O-2-BnPh))}-FAA[βAla]K([Ahx-X1])-NH2) | 10 nM | 7.98 ± 0.01 |  | 
